The AC50 is the concentration at which the activity in the assay is half-maximal. What is called EC50 is the concentration needed to bring the measured effect to its halfway point.

Active and inactive are the calls of the source. Bounds are passed on as bounds.

This is an account of results in ChEMBL document CHEMBL1201862, “PubChem BioAssay data set” (2004).

Experiment [1] can be described thus: Luminescence Cell-Based Dose Retest to Confirm Inhibitors of Cancer Stem Cells. [Related pubchem assays (depositor defined):AID2717, AID2721]. The note with it: Homo sapiens. It counts as functional.
Experiment [2] deals with Cytochrome P450 2C19 (Homo sapiens, UniProt P33261). Kind of experiment: Cytochrome panel assay with activity outcomes. Panel member name: p450-cyp2c19 Compounds with AC50 equal or less than 10 uM are considered active. It counts as functional. The note with it: read-out: AC50.
Cytochrome P450 2C19, sequence (P33261 whole entry): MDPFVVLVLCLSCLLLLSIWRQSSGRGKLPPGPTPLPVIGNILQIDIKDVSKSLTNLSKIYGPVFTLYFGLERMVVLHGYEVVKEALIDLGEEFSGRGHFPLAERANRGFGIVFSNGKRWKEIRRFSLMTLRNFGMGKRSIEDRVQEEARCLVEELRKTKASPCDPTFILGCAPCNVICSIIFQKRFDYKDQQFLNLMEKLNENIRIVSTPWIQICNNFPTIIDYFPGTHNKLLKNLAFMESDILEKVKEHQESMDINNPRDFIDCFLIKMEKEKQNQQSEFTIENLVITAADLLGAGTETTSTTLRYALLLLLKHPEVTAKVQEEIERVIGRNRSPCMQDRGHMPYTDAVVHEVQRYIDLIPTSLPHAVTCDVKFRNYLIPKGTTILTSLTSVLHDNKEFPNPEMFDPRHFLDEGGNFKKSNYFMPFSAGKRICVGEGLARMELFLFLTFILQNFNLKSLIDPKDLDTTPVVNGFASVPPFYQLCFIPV
The target in experiment [3] is T1, Cytochrome P450 1A2 (Homo sapiens, UniProt P05177).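 Note: PubChem cytochrome P450 panel assay, CYP1A2 panel member.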
T1 sequence (P05177 whole entry): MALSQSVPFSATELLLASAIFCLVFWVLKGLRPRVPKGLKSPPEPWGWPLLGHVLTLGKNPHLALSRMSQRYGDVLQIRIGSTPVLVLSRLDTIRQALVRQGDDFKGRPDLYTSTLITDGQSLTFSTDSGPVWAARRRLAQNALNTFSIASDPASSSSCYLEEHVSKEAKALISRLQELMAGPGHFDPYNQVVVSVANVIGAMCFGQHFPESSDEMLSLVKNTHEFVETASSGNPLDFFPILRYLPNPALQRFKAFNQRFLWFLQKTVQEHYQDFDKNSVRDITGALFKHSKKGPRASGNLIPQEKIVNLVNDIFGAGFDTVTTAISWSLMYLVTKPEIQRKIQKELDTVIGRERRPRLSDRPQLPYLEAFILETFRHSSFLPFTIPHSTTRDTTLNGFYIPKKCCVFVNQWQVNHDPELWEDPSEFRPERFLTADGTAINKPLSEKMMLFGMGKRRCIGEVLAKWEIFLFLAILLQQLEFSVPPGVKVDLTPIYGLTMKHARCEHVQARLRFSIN

Experiment [4] addresses T2, Heat shock factor protein 1 (Mus musculus, UniProt P38532).
T2 sequence (P38532 whole entry): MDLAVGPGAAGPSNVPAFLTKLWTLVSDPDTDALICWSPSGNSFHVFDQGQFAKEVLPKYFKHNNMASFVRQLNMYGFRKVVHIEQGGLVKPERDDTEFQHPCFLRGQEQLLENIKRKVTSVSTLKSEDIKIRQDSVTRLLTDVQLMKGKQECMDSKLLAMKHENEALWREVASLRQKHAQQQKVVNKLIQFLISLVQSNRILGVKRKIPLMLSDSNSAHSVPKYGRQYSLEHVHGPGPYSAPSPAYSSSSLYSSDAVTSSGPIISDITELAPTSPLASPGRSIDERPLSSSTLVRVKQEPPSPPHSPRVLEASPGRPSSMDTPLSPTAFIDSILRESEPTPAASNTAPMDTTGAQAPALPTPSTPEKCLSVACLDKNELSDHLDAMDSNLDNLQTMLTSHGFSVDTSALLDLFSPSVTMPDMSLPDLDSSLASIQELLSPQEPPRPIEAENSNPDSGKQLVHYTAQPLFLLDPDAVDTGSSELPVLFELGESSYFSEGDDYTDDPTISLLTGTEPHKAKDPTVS
The experiment in a line: enhancement of HSF1-driven luciferase signal – cell-based, NIH3T3, luminescence, dose retest, confirmation (AID 435004).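 Note: stress induced by proteasome inhibitor MG132 added 30 min after compound; luciferase reporter driven by HSF1 response element in NIH3T3 cells; actives raise luminescence as potentiators of the MG132 stress response.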 The class given is functional.

Experiment [5] is described as follows: Trypanosoma cruzi growth suppression in host cells – NIH3T3 host cells, beta-gal luminescence, confirmation (AID 2044).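 Note: intracellular parasites grown in NIH/3T3 mouse fibroblasts as host cells; luminescent beta-galactosidase reporter signal from transgenic T. cruzi replicating inside host cells; inhibitors lower the luminescence signal.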 The class given is functional, cell-based.
Experiment [6] is described as follows: NIH3T3 cell viability loss – ATP luminescence, mouse fibroblasts, counter-screen, dose response (AID 2010).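 Note: cells exposed to compound for about 90 hours before reading.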 The class given is functional, cell-based. In general terms: The purpose of a counterscreen is to sort out artefacts and off-target activity.
Experiment [7] has as its system Streptococcus sp. 'group A'. The experiment in a line: Streptococcus pyogenes SK(-)GAS viability under kanamycin – luminescence, BacTiterGlo, confirmation, counter-screen for streptokinase expression inhibitor project, dose response (AID 1900). It counts as functional, organism-based.
For experiment [8], the target named is T3, Streptokinase A (Streptococcus pyogenes serotype M1, UniProt P10520).
T3 sequence (P10520 whole entry): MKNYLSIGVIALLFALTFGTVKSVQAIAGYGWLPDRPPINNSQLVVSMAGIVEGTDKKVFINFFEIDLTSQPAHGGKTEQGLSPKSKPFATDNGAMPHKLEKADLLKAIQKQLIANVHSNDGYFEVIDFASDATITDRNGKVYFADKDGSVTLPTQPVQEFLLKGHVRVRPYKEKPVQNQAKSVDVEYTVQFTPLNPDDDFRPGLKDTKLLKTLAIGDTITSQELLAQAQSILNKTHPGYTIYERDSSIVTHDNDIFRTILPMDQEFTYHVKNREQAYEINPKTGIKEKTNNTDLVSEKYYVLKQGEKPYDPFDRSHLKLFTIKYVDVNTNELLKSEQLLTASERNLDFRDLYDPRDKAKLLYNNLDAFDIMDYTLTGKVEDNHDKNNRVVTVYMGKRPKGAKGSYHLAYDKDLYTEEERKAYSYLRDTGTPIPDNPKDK
Kind of experiment: viability-normalized secreted streptokinase activity reduction – plasminogen activation absorbance, OD405, dose response (AID 1914).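 Note: secreted streptokinase activity via plasminogen activation per viability signal from cell pellet.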 The class given is functional, Streptococcus pyogenes M1 GAS.

The subject of experiment [9] is Streptococcus. The experiment in a line: GAS UMAA2166 growth inhibition – luminescence, BacTiterGlo, counter-screen for streptokinase expression inhibitor project, dose response (AID 1915).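 Note: potency for reduction of bacterial viability or growth.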 It counts as functional, organism-based.
Experiment [10] is described as follows: luciferase reporter signal suppression in cells – H4 neuroglioma cells, luminescence, dose response (AID 1990). The class given is functional, cell-based. In general terms: Reporter assays use an easily measured gene product as a stand-in for the process of interest.
A short description of experiment [11]: Luminescence Cell-Based Dose Response HTS to Identify Inhibitors of 5'UTR Stem-Loop Driven Prion Protein mRNA Translation in H4 Neuroglioblastoma Cells. [Related pubchem assays: 1827 (Project Summary), 1813 (Primary HTS)]. The class given is functional.
The nature of experiment [12]: alpha-synuclein stem-loop luciferase translation blockers – H4 neuroglioma cells, luminescence, confirmation (AID 1988). The class given is functional, cell-based.
Experiment [13] has as its target Cytochrome P450 3A4 (Homo sapiens, UniProt P08684).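 Note: CYP3A4 tested as one member of a cytochrome P450 panel screen.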
Experiment [14] deals with Cytochrome P450 2C9 (Homo sapiens, UniProt P11712).
Cytochrome P450 2C9, sequence (P11712 whole entry): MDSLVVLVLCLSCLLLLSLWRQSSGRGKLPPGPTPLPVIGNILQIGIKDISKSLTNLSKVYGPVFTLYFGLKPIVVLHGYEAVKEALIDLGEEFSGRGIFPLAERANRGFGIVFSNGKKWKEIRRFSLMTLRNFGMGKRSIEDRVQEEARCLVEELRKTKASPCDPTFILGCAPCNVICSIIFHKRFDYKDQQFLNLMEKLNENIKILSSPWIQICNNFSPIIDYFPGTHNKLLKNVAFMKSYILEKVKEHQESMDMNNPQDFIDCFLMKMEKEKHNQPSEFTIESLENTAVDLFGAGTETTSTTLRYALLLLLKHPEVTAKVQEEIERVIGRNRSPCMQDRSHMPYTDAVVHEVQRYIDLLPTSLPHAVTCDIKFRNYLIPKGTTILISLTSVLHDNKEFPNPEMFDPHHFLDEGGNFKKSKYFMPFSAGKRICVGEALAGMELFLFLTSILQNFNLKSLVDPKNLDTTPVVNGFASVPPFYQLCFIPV
In experiment [15] the target is T2, Heat shock factor protein 1. Kind of experiment: decrease of HSF1-responsive luciferase luminescence – cell-based, NIH3T3, dose retest, confirmation (AID 2382).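 Note: NIH3T3 fibroblasts with HSF1-driven luciferase reporter stressed by proteasome inhibitor MG132; luminescence from HSF1-driven luciferase expression after 8 hours of MG132 stress.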 The class given is functional.

Cytochrome P450 3A4, sequence (P08684 whole entry): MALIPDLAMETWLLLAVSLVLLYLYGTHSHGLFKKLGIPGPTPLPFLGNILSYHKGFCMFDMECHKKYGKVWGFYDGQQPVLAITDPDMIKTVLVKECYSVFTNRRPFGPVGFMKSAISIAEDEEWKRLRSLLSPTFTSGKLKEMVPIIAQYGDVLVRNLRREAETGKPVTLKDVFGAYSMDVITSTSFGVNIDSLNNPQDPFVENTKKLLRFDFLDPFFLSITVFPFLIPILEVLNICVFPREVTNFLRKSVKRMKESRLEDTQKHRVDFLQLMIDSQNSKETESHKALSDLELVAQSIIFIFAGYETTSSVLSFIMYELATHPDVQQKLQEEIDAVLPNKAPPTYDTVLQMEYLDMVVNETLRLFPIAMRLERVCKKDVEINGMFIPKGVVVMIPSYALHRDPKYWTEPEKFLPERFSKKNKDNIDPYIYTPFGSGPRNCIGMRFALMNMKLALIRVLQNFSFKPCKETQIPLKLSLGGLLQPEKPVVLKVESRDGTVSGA

Regarding `Cc1ccc(COc2ccccc2-c2cc(C(=O)N/N=C/c3cccnc3)[nH]n2)cc1`, in experiment [1], the concentration at half-maximal activity (AC50) was 0.778 µM (active).

For `CSc1nsc(/C=C/Nc2ccc(Cl)cc2)c1C#N`, the AC50 was 3.55 µM (inconclusive) in [2] and 5.62 µM (inconclusive) in [3]. The corresponding values for `N[C@H](C(=O)O)C1[C@H](C(=O)O)[C@H]1C(=O)O` (some centres not stated) are 31.6 µM (inconclusive) and 31.6 µM (inconclusive). Consider `Cc1nn(C(C)C(=O)NCCCN2CCCCC2C)c(=O)c2c1sc1ccccc12` (configuration not stated), for which the EC50 in experiment [4] was > 260 µM (inactive).

With `CC1SC(N/N=C/c2cccc([N+](=O)[O-])c2)=NC1=O` (configuration not stated), the AC50 in experiment [1] was 2.38 µM (active). `COCCN(C(=O)C(C)C)c1nnc(-c2ccc(C)cc2)s1`: in [3], the AC50 was 12.6 µM (inconclusive). For the compound `Cn1c(C(=O)OC(C(=O)NC(C)(C)C)c2cccnc2)cc2sccc21` (configuration not stated), the concentration for a half-maximal effect (EC50) is 1.23 µM (active) in experiment [5], 48.4 µM (active) in experiment [6] and > 260 µM (inactive) in experiment [4]. Consider `Cc1cccc(S(=O)(=O)NCCC(=O)OC(C)C(=O)NC(=O)NC2CCCCC2)c1` (configuration not stated), for which, in experiment [4], the EC50 was > 260 µM (inactive). As for `Cc1ccc(-c2cc([C@H]3[C@@H]4C=CCC[C@@]4(C)C(=O)N3Cc3ccccc3)ccc2F)cc1`, the EC50 was 5.4 µM (active) in experiment [7], 4.92 µM (active) in experiment [8] and 18 µM (active) in [9]. For the same compound, the AC50 in experiment [1] was 3.16 µM (active). On to `COC(=O)C1=C(C)N(Cc2ccc(C)cc2)C(=O)/C1=C\c1cc(OC)c(OC)c(OC)c1`, for which the 50% effective concentration (EC50) in [4] was 11.6 µM (active). On to `N#Cc1ccsc1NC(=O)COC(=O)CCCSc1nc2ccccc2s1`, for which the EC50 in experiment [10] was > 120 µM (not active); in [11] it was > 120 µM (not active); in experiment [12] it was 16.1 µM (active). Take `O=c1c(-c2ccc(Cl)cc2)nc2cnc(N3CCNCC3)nc2n1Cc1ccc(F)cc1`: the AC50 in experiment [2] was 39.8 µM (inconclusive); in [3] it was 15.8 µM (inconclusive); in experiment [13] it was 12.6 µM (inconclusive). Consider `COc1ccc(C(=O)CC(=O)C(=O)Nc2cc(OC)c(OC)c(OC)c2)cc1`, for which the EC50 in [4] was > 260 µM (inactive).

`O=C(Nc1ccc2c(c1)OCO2)c1nn(-c2ccccc2)c(=O)c2ccccc12`: the half-maximal effective concentration (EC50) in [10] was > 120 µM (not active); in [11], 24 µM (active); in experiment [12], > 120 µM (not active). With `Cc1cccn2c(=O)nc(SCC(=O)N3N=C(c4cccs4)CC3c3ccc(F)cc3)nc12` (configuration not stated), the values for the concentration for a half-maximal effect (EC50) in experiment [5], in experiment [6] and in experiment [4] were 1.48 µM (active), 11.6 µM (active) and > 260 µM (inactive), respectively. For the compound `COc1cccc(Cn2c(=O)c(CCc3ccccc3)nc3cncnc32)c1`, the half-maximal activity concentration (AC50) was 25.1 µM (inconclusive) in experiment [2], 12.6 µM (inconclusive) in experiment [3] and 12.6 µM (inconclusive) in [14]. Take `COc1ccc(N(CC(=O)Nc2ccc(S(=O)(=O)N3CCCCC3)cc2)S(C)(=O)=O)cc1OC`: the EC50 in experiment [10], in experiment [11] and in [12] was > 120 µM (not active) each time.

On to `Nc1c(S(=O)(=O)c2ccccc2)c2nc3ccccc3nc2n1Cc1ccco1`, for which the half-maximal activity concentration (AC50) in [3] was 22.4 µM (inconclusive). For `Cc1ccc(C(=O)Cn2nc(C(=O)O)c3ccccc3c2=O)cc1C`, in [4], the EC50 was > 260 µM (inactive). Turning to `Cc1c(C2(O)CCCCC2)[nH]c2ccc(C(F)(F)F)cc12`, the AC50 in experiment [1] is 5.63 µM (active). For the compound `CCCc1nc(NCc2ccccc2)c(C#N)c2c1CCCC2`, the EC50 in experiment [10] is > 120 µM (not active); in experiment [7], 14.9 µM (active); in experiment [11] it was > 120 µM (not active); in [12], > 120 µM (not active); in experiment [8], 3.06 µM (active); in experiment [9] it was 18.5 µM (active). `Brc1ccccc1Cn1c(-c2cncs2)nc2ccccc21`: the 50% effective concentration (EC50) in experiment [10] was 17.1 µM (active); in [11] it was > 120 µM (not active); in experiment [12], > 120 µM (not active). Take `COC(=O)[C@@]1(Cc2ccc(F)cc2)[C@H]2c3cc(C(=O)N(C)C)n(Cc4cccc5ccccc45)c3C[C@H]2CN1C(=O)c1ccccc1`: the AC50 in experiment [3] is 6.31 µM (inconclusive). As for `CN1C(=O)/C(=C/c2cccc(Cl)c2)Sc2ccc(C(=O)NCc3cccnc3)cc21`, in experiment [1], the AC50 was 1.63 µM (active). With `COC(=O)[C@@]1(Cc2ccc(OC)cc2)[C@H]2c3cc(C(=O)N4CCCC4)n(Cc4ccc(Cl)c(C(F)(F)F)c4)c3C[C@H]2CN1C(=O)c1ccccc1`, the AC50 is 12.6 µM (inconclusive) in [3] and 1.26 µM (inconclusive) in [13]. With `NCCCCCc1nnc(SCc2ccccc2Cl)o1`, the figures for the EC50 in experiment [10], in experiment [11] and in experiment [12] were 14.7 µM (active), 15.7 µM (active) and 12.8 µM (active), respectively. In addition, the concentration at half-maximal activity (AC50) in experiment [3] is 28.2 µM (inconclusive); in [14], 25.1 µM (inconclusive). On to `O=c1c(-c2ccccc2)nc2cnc(N3CCNCC3)nc2n1Cc1ccc(F)cc1`, for which the half-maximal activity concentration (AC50) in [2] is 31.6 µM (inconclusive); in experiment [3], 20 µM (inconclusive). Turning to `Cc1cc2occ(CC(=O)NCc3cccs3)c2cc1C(C)C`, the EC50 in experiment [4] was > 260 µM (inactive). Turning to `CCN1CCSc2ccc(C(=O)NCc3cccc(Br)c3)cc21`, the EC50 in experiment [4] was > 260 µM (inactive).

As for `O=C(c1ccco1)N(Cc1ccc([N+](=O)[O-])cc1)c1ccc(Br)cc1`, the EC50 in experiment [4] is > 260 µM (inactive). Take `CC(=O)Nc1ccc2c(c1)N(C(=O)CN(C)C)c1ccccc1CC2`: the EC50 in [4] is > 260 µM (inactive). On the same count and under the same terms, with `Cc1cc(F)c(F)c(C(=O)N2CCOCC2)c1Cl` the figure was > 260 µM (inactive). Consider `Cc1ccc(-n2ccc(=O)c(-c3ccnc(SCc4cccc(Cl)c4)n3)n2)cc1`, for which the concentration at half-maximal activity (AC50) in experiment [3] was 14.1 µM (inconclusive). For the compound `COc1cccc(S(=O)(=O)NCc2ccc(C(=O)Nc3cccc(Cl)c3)cc2)c1`, the AC50 in experiment [1] was 4.31 µM (active). For `COc1ccc(CNC2CCSc3ccccc32)cc1OC` (configuration not stated), in experiment [4], the EC50 is > 260 µM (inactive).

Take `Cc1ccc(CNc2nc(-c3cccs3)nc3ccccc23)cc1`: the AC50 in experiment [1] is 7 µM (active). Take `O=C(Nc1ccc2c(c1)OCCO2)NC1(C(F)(F)F)Oc2ccccc2O1`: the EC50 in experiment [10] is > 120 µM (not active); in [11], > 120 µM (not active); in [15] it was 12.5 µM (active); in experiment [12] it was > 120 µM (not active).
